Each block holds one molecule with its values, some of them ahead of it.
Experiments:
Assay type in all cases: cell-based
human term placenta [1] = experiment: Effect of enzyme inhibitors on prostanoid release from perifused human term placental explants (RIA); conditions: quinacrine 10 μM; for effect on PGFM release vs control / effect on TxB2 release vs control: EDTA 1 mM in perifusion medium; for effect on 6-keto-PGF1α release vs control / effect on PGE release vs control: EDTA 1 mM, NDGA 10 μM in perifusion medium
Description: Radioimmunoassays were performed in a fashion similar to what has been previously described (Siler-Khodr et al., 1986, Biol. Reprod., 35:312) which is specifically incorporated herein for this purpose, with specific exception as noted below. A perifusion model (described in Examples 2 and 3) was employed to determine placental cell response. Media collected from the perifusion samples prepared from placental tissues were assayed. […] All the samples from a given perifusion (placenta) were determined in the same assay. At the beginning of the fifth hour of the perifusion, Medium 199 in the experimental chambers was changed to Medium 199 containing quinacrine (10 μM), EDTA (1 mM), NDGA (10 μM) or indomethacin (50 μg/ml). Four replicated chambers were perifused with control medium and each of the experimental media. This experimental design was repeated in three different perifusions using placental tissues from three different patients according to the procedure described in Example 3. […] Term placentas were obtained and placed on ice immediately after vaginal delivery from patients having spontaneous labor and delivery without any known obstetrical or medical complications. Tissues were obtained in accordance with a protocol approved by the Institutional Review Board. Within 30 minutes, the placental tissues were dissected of decidua, chorionic plates and large fetal vessels on ice. The placental tissues were cut into small fragments (approximately 25 pieces having a total weight of approximately 1 g), rinsed free of blood by repeated washing with ice cold normal saline until clear in color, and the tissue fragments placed in a 3-ml tissue chamber, placed in a 37° C. water bath. […] This medium is hereafter referred to as Medium 199. […] Perifusion was performed for two hours prior to initiation of sample collection. In this fashion, all tissues were thoroughly washed and equilibrated. Samples were collected hourly, beginning at the start of the third hour, into 12×75 mm glass tubes containing 0.1 ml indomethacin and 1100 μg/ml dimethyl sulfoxide [DMSO]. It took approximately one hour for the input medium to pass through the perifusion tubing and chamber and to be collected in the sample tube, thus the dead volume of the system was approximately 1 ml. Collection of the effluent of the 20 chambers was done simultaneously, using an ISCO fraction collector Retriever III adapted with a 20-tube rack and manifold. The prostanoid release for a given chamber was expressed as the increase over the fourth-hour prostanoid release for that chamber. Because there may be differences in the amounts of blood vessels and connective tissue among placental explants, the release expressed per unit weight results in high variance between chambers. […] Thus, the release of each chamber was related to its functional competence at the time of treatment rather than its mass. The mean release for replicate chambers from a given placenta for each particular prostanoid in the presence of arachidonic acid or each of the various enzyme inhibitors was calculated and then the mean data for each of the three different placentas was averaged at each time point. Thus, each placenta was weighted equally in the statistical analyses. Two-way analysis of variance of the average response for each prostanoid for each dose of arachidonic acid or each enzyme inhibitor studied, at each time point, was performed. The normalized data were tested for homogeneity using Cohrna's Q test, and no significant deviation was found. Thus, for each prostanoid and each treatment, where there was a significant main effect or interaction, Dunnett's comparison test was applied to determine the point(s) of significant difference as compared to the control. P<0.05 was considered to be statistically significant.

human term placenta [2] = experiment: Effect of arachidonic acid on prostanoid release from perifused human term placental explants
Description: Radioimmunoassays were performed in a fashion similar to what has been previously described (Siler-Khodr et al., 1986, Biol. Reprod., 35:312) which is specifically incorporated herein for this purpose, with specific exception as noted below. A perifusion model (described in Examples 2 and 3) was employed to determine placental cell response. Media collected from the perifusion samples prepared from placental tissues were assayed. After an initial pilot study of the prostanoid release of each of the perifusion placental tissue media samples collected hourly, samples from hours 3, 4, 5, 6, 8 and 12 of the perifusion were chosen for assay and for data analysis. All the samples from a given perifusion (placenta) were determined in the same assay.
The effect of exogenous arachidonic acid on basal prostanoid release was studied by perifusing placental tissue from the beginning of the fifth hour of the perifusion, with Medium 199 containing arachidonic acid (0.2, 1.0 or 10 μg/ml). Arachidonic acid was dissolved in ethanol such that 0.02 ml ethanol per 100 ml of Medium 199 was needed to obtain these concentrations, and the resulting ethanol concentration was 0.02%. The control medium was also made to be 0.02% ethanol for valid comparison of the arachidonic acid parameter only. Four replicated chambers were perifused with control medium and each of the experimental arachidonic acid media. This experimental design was repeated using placental tissues from three different patients.
Briefly, term placenta were obtained and placed on ice immediately after vaginal delivery from patients having spontaneous labor and delivery without any known obstetrical or medical complications. Tissues were obtained in accordance with a protocol approved by the Institutional Review Board. Within 30 minutes, the placental tissues were dissected of decidua, chorionic plates and large fetal vessels on ice. The placental tissues were cut into small fragments (approximately 25 pieces having a total weight of approximately 1 g), rinsed free of blood by repeated washing with ice cold normal saline until clear in color, and the tissue fragments placed in a 3-ml tissue chamber, placed in a 37° C. water bath. Twenty replicate chambers were prepared and each perifused with Medium 199 containing 0.05% BSA, 100 U penicillin and 100 μg streptomycin per ml at a rate of 1 ml per hour for 12 hours. This medium is hereafter referred to as Medium 199. The influx medium was aerated with 95% air and 5% CO2 throughout the perifusion. Perifusion was performed for two hours prior to initiation of sample collection. In this fashion, all tissues were thoroughly washed and equilibrated. Samples were collected hourly, beginning at the start of the third hour, into 12×75 mm glass tubes containing 0.1 ml indomethacin and 1100 μg/ml dimethyl sulfoxide [DMSO]. It took approximately one hour for the input medium to pass through the perifusion tubing and chamber and to be collected in the sample tube, thus the dead volume of the system was approximately 1 ml. Collection of the effluent of the 20 chambers was done simultaneously, using an ISCO fraction collector Retriever III adapted with a 20-tube rack and manifold.
The prostanoid release for a given chamber was expressed as the increase over the fourth-hour prostanoid release for that chamber. Because there may be differences in the amounts of blood vessels and connective tissue among placental explants, the release expressed per unit weight results in high variance between chambers. […] Thus, the release of each chamber was related to its functional competence at the time of treatment rather than its mass.
The mean release for replicate chambers from a given placenta for each particular prostanoid in the presence of arachidonic acid or each of the various enzyme inhibitors was calculated and then the mean data for each of the three different placentas was averaged at each time point. […]

human term placenta [3] = experiment: IGF-I effect on prostanoid and hCG release from perifused human term placental explants
Description: Term placentas were obtained and processed as described herein. Seven replicate chambers were prepared and each perifused with Medium 199 containing 0.05% BSA, penicillin (100 U/ml), streptomycin (100 μg/ml), estradiol (200 ng/ml), progesterone (2000 ng/ml), dexamethasone (10^−8 M), and insulin (100 μU/ml), at a rate of 6 ml/hour for 10.5 hours. Steroids were first dissolved in ethanol at 10^−4M final concentration and taken to final dilution with BSA-containing medium. This medium is hereafter referred to as Medium 199. These concentrations of steroid were chosen because they are known by those in the obstetrical arts to simulate the intrauterine milieu in vivo in humans. The influx medium was aerated with 95% air and 5% CO2 throughout the perifusion. Perifusion at a rate of 6 ml/hr was performed for […] prior to initiation of sample collection. In this fashion, all tissues were thoroughly washed and equilibrated. Samples were collected every half-hour, beginning at the start of the fourth hour, into 12×75 mm glass tubes containing 0.1 ml indomethacin (1100 μg/ml dimethyl sulfoxide [DMSO]). Collection of the effluent of the seven chambers was done simultaneously, using an ISCO fraction collector Retriever III adapted with a rack having seven tubes and a manifold.
To study the effect of IGF-I on basal prostanoid release, ten minutes prior to the beginning of the fifth hour of the perifusion, Medium 199 in the experimental chambers was changed to Medium 199 containing IGF-I (10^−8 M). This dose of IGF-I was chosen from calculations of the inventor using the Km of the placental receptor for IGF-I. It took ten minutes for the input medium to pass through the perifusion tubing and chamber and to be collected in the sample tube. Three replicated chambers were perifused with experimental medium, whereas, in another four replicated chambers, the perifusion was continued with the control, Medium 199. This experimental design was repeated using placental tissues from three different patients each having a normal pregnancy.
Prostanoid recovery and stability was determined as described in Example 1. Prostanoid radioimmunoassay was also conducted as described in Example 1.
Hormonal values for a given chamber were normalized to the fifth-hour prostanoid or hCG release for that chamber, expressed as a percent release over the fifth-hour release. Because there may be differences in the amount of blood vessels and connective tissue among placental explants, the release expressed per unit weight results in high variance between chambers. […] Thus, the release of each chamber was related to its functional competence at the time of treatment rather than to its mass. The mean release for replicate chambers from a given placenta for each particular hormone in the presence of IGF-I at each time point was calculated and the mean data for each of the three different placentas were averaged at each time point. Thus, each placenta was weighed equally in the statistical analyses. Similar calculations were done for the controls as for the experimental chambers. For each hormone studied, these average normalized data were tested for homogeneity, using Bartlett's test, and if significant deviation was found, the data were log-transformed prior to statistical analysis. Two-way analysis of variance was used to determine if there was significant main effect or interaction.
In addition, the cumulative release for each hormone from each placenta for each treatment was calculated. One-way analysis of variance was used to test for statistical effects of treatment. The points of significant variation were determined using the Student-Newman-Keuls test.

human term placenta [4] = experiment: Dose-related action of IGF-I on basal prostanoid production from perifused human term placenta
Description: The dose-related effect of IGF-I on placental prostanoids was studied with the perifusion system previously described herein. Normal term deliveries were perifused with a defined Medium 199 containing no phenol red nor exogenous hormonal factors other than 100μU/ml of insulin, estradiol (200 ng/ml), progesterone (4000 ng/ml) and dexamethasone (10^−8). These doses were chosen to emulate the normal term placental environment. Replicate chambers for the control (n=4) and treatment (n=3) explants for each placenta were made. Following a five-hour perifusion at 6 ml/hr with basal media, IGF-I (5, 10, 20, 40 or 80 ng/ml) was added to the triplicate chambers and sample collection continued every 30 minutes for another five hours. The average hormonal response for the replicate chambers of the control and the IGF-I treated explants was calculated and then the mean (±SEM) response for the different placentas with and without treatment was computed and the results compared. […] TxB2 was inhibited at even 10 ng/ml of IGF-I.

[5] = arachidonic acid 10 μg/ml, within three hours of exposure

effect on PGFM release vs control (human term placenta [1]): did not reduce
effect on TxB2 release vs control (human term placenta [1]): did not reduce
effect on 6-keto-PGF1α release vs control (human term placenta [1]): significant inhibition
effect on PGE release vs control (human term placenta [1]): did not reduce
Molecule: O=C(O)CN(CCN(CC(=O)O)CC(=O)O)CC(=O)O [EDTA, ethylene diamino tetraacetic acid]

effect on 6-keto-PGF1α release vs control (human term placenta [1]): significant inhibition
effect on PGE release vs control (human term placenta [1]): inhibited
Molecule: CC(Cc1ccc(O)c(O)c1)C(C)Cc1ccc(O)c(O)c1 (centres unmarked) [NDGA, nordihydroguaiaretic acid]

Molecule: CCCCC/C=C\C/C=C\C/C=C\C/C=C\CCCC(=O)O [arachidonic acid]
effect on prostanoid production (human term placenta [2]; arachidonic acid 0.2 μg/ml): no significant effect
effect on prostanoid production (human term placenta [2]; arachidonic acid 1.0 μg/ml): no significant effect
effect on PGE release (human term placenta [2]; [5]): significant increase
effect on PGF release (human term placenta [2]; [5]): significant increase
effect on 6-keto-PGF1α (human term placenta [2]; arachidonic acid 0.2-10 μg/ml): no significant effect
effect on PGFM (human term placenta [2]; arachidonic acid 0.2-10 μg/ml): no significant effect
effect on TxB2 (human term placenta [2]; arachidonic acid 0.2-10 μg/ml): no significant effect

effect on PGF release vs control (human term placenta [1]; first hour of exposure): significant inhibition
Molecule: CCN(CC)CCCC(C)Nc1c2ccc(Cl)cc2nc2ccc(OC)cc12 (centres unmarked) [quinacrine]
effect on PGFM release vs control (human term placenta [1]): no significant effect
effect on TxB2 release vs control (human term placenta [1]): no significant effect
effect on 6-keto-PGF1α release vs control (human term placenta [1]): no significant effect
effect on PGE release vs control (human term placenta [1]): no significant effect

Molecule: Insulin like growth factor-I [IGF-I]
cumulative release of the other hormones studied (PGE, PGFM, 6-keto-PGF1α, hCG) vs control (human term placenta [3]; IGF-I 10^−8 M): no significant change
effect on PGE release (human term placenta [3]; IGF-I 10^−8 M): not affected
effect on release of hCG compared to controls (human term placenta [3]; IGF-I 10^−8 M): did not affect
hCG release (human term placenta [3]; IGF-I 10^−8 M): 55 % of the fifth-hour release
PGE release (human term placenta [3]; IGF-I 10^−8 M treated tissues): 228 % of the fifth-hour release
cumulative release of TxB2 vs control (human term placenta [3]; IGF-I 10^−8 M, P<0.01): significant reduction
cumulative release of PGF vs control (human term placenta [3]; IGF-I 10^−8 M, P<0.05): significant reduction
TxB2 release (human term placenta [3]; IGF-I 10^−8 M, by the fifth hour of treatment): 85 % of the control's release
PGF release (human term placenta [3]; IGF-I 10^−8 M, by the fifth hour of treatment, normalized to fifth-hour release): 116%
6-keto-PGF1α release (human term placenta [3]; IGF-I 10^−8 M, during the five hours): 146 % of the fifth-hour release
effect on PGFM release (human term placenta [3]; IGF-I 10^−8 M, five hours of perifusion): unchanged
time to significant inhibition of TxB2 release (human term placenta [3]; IGF-I 10^−8 M, following treatment): ≤ 150 min
effect on release of 6-keto-PGF1α (human term placenta [3]; IGF-I 10^−8 M, more than five hours): not significantly altered
effect on release of PGF (human term placenta [3]; IGF-I 10^−8 M, significant from the third hour): significantly (P<0.01) inhibited
effect on TxB2 (human term placenta [4]; IGF-I 10 ng/ml): inhibited
effect on PGF production (human term placenta [4]; IGF-I 5-80 ng/ml): greatly reduced
greatest inhibition of TxB2 production (human term placenta [4]; IGF-I 10^−8 M): 70 % of the basal release
effect on TxB2 production (human term placenta [4]; IGF-I at each dose (5, 10, 20, 40 or 80 ng/ml)): statistically significant inhibition
effect on PGE (human term placenta [4]; high dose of IGF-I): small reduction
molar concentration producing a selective pharmacological affect on human placental tissue (human term placenta [4]; on the order of): ~10^−9 molar
